What was measured:
Test in all cases: kinobeads assay with mass spectrometry detection of kinases (kinase selectivity profile)
Format in all cases: binding
kinases (kinome) [1] = target: T1, kinases (kinome) (Homo sapiens, UniProt P36894); settings: BMPR1A (TKL), IPI00005731
T1 construct: determined in kinobeads assays with mass spectrometry detection of kinases as described previously; endogenous in cells; host or cells: cell lysate
Source text: (§1) The protein kinase complement of the human genome (the kinome) was described previously (Manning et al., 2002. Science 298(5600):1912-1934). Sequence accession numbers are defined by the International Protein Index (IPI) (Kersey et al., 2004. Proteomics 4(7):1985-1988).

kinases (kinome) [2] = target: T2, kinases (kinome) (Homo sapiens, UniProt Q16584); settings: MLK3 (TKL), IPI00000977
T2 construct: determined in kinobeads assays with mass spectrometry detection of kinases as described previously; endogenous in cells; host or cells: cell lysate
Source text: as §1

kinases (kinome) [3] = target: T3, kinases (kinome) (Homo sapiens, UniProt Q9Y6M4); settings: CK1g3 (CK1), IPI00218437
T3 construct: determined in kinobeads assays with mass spectrometry detection of kinases as described previously; endogenous in cells; host or cells: cell lysate
Source text: as §1

kinases (kinome) [4] = target: T4, kinases (kinome) (Homo sapiens, UniProt P36507); settings: MAP2K2 (STE), IPI00003783
T4 construct: determined in kinobeads assays with mass spectrometry detection of kinases as described previously; endogenous in cells; host or cells: cell lysate
Source text: as §1

kinases (kinome) [5] = target: T5, kinases (kinome) (Homo sapiens, UniProt P51617); settings: IRAK1 (TKL), IPI00293652
T5 construct: determined in kinobeads assays with mass spectrometry detection of kinases as described previously; endogenous in cells; host or cells: cell lysate
Source text: as §1

kinases (kinome) [6] = target: T6, kinases (kinome) (Homo sapiens, UniProt Q8N5S9); settings: CaMKK1 (Other), IPI00792960
T6 construct: determined in kinobeads assays with mass spectrometry detection of kinases as described previously; endogenous in cells; host or cells: cell lysate
Source text: as §1

kinases (kinome) [7] = target: T7, kinases (kinome) (Homo sapiens, UniProt P15735); settings: PHKg2 (CAMK), IPI00012891
T7 construct: determined in kinobeads assays with mass spectrometry detection of kinases as described previously; endogenous in cells; host or cells: cell lysate
Source text: as §1

kinases (kinome) [8] = target: T8, kinases (kinome) (Homo sapiens, UniProt Q99683); settings: MAP3K5 (STE), IPI00412433
T8 construct: determined in kinobeads assays with mass spectrometry detection of kinases as described previously; endogenous in cells; host or cells: cell lysate
T8 sequence (Q99683 1-1374): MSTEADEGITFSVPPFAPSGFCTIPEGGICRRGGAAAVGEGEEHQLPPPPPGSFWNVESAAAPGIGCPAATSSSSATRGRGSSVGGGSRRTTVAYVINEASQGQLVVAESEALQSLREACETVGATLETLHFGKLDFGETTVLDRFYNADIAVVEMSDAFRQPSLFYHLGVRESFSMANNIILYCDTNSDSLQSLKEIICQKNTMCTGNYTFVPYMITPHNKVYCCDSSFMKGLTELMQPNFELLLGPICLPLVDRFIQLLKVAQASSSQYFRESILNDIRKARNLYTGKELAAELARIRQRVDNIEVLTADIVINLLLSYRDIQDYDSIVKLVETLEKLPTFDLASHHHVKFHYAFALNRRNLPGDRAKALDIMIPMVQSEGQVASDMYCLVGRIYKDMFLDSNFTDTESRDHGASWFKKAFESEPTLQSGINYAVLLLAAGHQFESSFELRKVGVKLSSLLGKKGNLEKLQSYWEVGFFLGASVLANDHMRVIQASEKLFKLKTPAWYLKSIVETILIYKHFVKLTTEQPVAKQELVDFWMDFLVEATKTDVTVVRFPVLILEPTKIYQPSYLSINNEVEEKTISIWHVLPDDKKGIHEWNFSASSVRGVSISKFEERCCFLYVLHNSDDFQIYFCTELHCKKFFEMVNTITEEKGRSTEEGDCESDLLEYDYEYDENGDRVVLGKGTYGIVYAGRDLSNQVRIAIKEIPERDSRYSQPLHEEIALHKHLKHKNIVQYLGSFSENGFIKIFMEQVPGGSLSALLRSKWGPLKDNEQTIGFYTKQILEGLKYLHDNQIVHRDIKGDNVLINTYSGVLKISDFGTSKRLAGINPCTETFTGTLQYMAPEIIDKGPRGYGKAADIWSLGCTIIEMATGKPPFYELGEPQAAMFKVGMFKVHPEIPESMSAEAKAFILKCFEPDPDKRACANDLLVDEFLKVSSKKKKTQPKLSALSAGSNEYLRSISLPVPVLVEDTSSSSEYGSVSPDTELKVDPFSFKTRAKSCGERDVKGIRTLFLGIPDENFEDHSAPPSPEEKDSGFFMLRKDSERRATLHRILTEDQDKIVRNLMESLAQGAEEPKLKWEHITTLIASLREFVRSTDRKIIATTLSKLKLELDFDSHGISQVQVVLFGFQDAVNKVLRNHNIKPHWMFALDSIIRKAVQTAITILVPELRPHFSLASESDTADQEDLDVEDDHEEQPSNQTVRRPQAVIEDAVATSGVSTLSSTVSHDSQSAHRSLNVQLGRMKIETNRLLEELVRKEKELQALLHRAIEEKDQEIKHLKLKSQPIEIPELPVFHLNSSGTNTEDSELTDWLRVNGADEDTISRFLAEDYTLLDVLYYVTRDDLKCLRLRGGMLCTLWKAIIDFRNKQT
Source text: as §1

kinases (kinome) [9] = target: T9, kinases (kinome) (Homo sapiens, UniProt Q02750); settings: MAP2K1 (STE), IPI00219604
T9 construct: determined in kinobeads assays with mass spectrometry detection of kinases as described previously; endogenous in cells; host or cells: cell lysate
Source text: as §1

kinases (kinome) [10] = target: T10, kinases (kinome) (Homo sapiens, UniProt P00519); settings: ABL (TK), IPI00221171
T10 construct: determined in kinobeads assays with mass spectrometry detection of kinases as described previously; endogenous in cells; host or cells: cell lysate
Source text: as §1

kinases (kinome) [11] = target: T11, kinases (kinome) (Homo sapiens, UniProt P10721); settings: KIT (TK), IPI00022296
T11 construct: determined in kinobeads assays with mass spectrometry detection of kinases as described previously; endogenous in cells; host or cells: cell lysate
Source text: as §1

kinases (kinome) [12] = target: T12, kinases (kinome) (Homo sapiens, UniProt Q13188); settings: MST2 (STE), IPI00411984
T12 construct: determined in kinobeads assays with mass spectrometry detection of kinases as described previously; endogenous in cells; host or cells: cell lysate
T12 sequence (Q13188 1-491): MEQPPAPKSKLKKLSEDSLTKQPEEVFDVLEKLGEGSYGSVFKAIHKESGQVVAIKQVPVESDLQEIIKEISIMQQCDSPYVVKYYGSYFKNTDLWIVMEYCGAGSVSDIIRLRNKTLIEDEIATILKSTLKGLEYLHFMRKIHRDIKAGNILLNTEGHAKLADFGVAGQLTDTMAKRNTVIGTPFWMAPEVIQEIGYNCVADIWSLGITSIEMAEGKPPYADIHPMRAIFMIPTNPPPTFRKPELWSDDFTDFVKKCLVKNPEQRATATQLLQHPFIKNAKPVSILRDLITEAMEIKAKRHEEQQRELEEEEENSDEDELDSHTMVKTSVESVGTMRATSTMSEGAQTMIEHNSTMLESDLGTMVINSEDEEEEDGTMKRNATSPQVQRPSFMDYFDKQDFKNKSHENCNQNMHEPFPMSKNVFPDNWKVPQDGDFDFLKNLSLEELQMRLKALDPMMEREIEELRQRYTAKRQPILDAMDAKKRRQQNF
Source text: as §1

kinases (kinome) [13] = target: T13, kinases (kinome) (Homo sapiens, UniProt O60674); settings: JAK2 (TK), IPI00031016
T13 construct: determined in kinobeads assays with mass spectrometry detection of kinases as described previously; endogenous in cells; host or cells: cell lysate
Source text: as §1

T6 sequence (Q8N5S9 whole entry): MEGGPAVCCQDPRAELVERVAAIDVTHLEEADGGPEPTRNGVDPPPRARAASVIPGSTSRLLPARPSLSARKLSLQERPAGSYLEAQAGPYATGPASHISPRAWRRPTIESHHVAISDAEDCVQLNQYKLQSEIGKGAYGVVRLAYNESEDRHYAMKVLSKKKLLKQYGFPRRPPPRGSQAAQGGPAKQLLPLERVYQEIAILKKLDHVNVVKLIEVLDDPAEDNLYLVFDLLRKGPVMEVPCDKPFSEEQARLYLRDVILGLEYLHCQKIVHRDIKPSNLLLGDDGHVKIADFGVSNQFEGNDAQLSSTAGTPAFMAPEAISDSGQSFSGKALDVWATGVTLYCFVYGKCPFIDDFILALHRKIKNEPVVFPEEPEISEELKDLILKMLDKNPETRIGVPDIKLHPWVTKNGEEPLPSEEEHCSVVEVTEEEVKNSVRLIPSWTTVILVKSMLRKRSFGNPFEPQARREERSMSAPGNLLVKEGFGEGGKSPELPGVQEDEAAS
T2 sequence (Q16584 whole entry): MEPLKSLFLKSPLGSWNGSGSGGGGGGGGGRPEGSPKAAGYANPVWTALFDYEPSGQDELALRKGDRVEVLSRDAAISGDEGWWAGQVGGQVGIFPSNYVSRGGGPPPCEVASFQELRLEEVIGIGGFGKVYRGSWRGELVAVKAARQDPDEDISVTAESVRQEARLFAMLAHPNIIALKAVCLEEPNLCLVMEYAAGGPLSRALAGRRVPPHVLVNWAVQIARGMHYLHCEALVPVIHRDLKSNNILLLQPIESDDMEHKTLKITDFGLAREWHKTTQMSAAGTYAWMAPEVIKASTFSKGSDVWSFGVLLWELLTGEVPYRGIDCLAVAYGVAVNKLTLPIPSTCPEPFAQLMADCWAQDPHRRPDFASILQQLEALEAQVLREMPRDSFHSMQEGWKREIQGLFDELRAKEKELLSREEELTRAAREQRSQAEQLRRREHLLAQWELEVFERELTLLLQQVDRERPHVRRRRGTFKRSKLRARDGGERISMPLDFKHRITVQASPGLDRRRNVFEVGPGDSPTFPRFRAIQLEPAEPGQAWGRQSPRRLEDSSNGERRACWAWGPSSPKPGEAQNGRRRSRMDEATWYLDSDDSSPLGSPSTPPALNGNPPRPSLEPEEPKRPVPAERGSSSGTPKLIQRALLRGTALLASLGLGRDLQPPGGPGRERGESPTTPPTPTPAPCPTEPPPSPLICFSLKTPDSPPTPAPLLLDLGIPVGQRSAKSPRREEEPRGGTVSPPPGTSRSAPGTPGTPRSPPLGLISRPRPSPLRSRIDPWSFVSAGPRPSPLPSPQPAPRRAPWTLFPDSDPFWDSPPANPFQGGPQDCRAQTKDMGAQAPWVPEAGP
T1 sequence (P36894 24-532): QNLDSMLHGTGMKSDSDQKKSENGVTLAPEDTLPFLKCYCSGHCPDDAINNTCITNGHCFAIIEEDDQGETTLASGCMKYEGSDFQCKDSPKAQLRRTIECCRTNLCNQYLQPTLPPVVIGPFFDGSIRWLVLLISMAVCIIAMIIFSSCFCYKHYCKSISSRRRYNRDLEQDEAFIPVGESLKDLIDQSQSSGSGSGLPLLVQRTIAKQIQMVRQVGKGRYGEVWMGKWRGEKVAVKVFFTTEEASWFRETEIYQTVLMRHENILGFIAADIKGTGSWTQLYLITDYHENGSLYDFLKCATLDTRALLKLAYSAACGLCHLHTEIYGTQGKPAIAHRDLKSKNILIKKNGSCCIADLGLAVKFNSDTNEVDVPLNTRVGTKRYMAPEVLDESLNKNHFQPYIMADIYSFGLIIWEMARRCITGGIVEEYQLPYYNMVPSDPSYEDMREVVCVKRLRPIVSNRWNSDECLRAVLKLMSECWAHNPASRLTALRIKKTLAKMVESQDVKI
T10 sequence (P00519 whole entry): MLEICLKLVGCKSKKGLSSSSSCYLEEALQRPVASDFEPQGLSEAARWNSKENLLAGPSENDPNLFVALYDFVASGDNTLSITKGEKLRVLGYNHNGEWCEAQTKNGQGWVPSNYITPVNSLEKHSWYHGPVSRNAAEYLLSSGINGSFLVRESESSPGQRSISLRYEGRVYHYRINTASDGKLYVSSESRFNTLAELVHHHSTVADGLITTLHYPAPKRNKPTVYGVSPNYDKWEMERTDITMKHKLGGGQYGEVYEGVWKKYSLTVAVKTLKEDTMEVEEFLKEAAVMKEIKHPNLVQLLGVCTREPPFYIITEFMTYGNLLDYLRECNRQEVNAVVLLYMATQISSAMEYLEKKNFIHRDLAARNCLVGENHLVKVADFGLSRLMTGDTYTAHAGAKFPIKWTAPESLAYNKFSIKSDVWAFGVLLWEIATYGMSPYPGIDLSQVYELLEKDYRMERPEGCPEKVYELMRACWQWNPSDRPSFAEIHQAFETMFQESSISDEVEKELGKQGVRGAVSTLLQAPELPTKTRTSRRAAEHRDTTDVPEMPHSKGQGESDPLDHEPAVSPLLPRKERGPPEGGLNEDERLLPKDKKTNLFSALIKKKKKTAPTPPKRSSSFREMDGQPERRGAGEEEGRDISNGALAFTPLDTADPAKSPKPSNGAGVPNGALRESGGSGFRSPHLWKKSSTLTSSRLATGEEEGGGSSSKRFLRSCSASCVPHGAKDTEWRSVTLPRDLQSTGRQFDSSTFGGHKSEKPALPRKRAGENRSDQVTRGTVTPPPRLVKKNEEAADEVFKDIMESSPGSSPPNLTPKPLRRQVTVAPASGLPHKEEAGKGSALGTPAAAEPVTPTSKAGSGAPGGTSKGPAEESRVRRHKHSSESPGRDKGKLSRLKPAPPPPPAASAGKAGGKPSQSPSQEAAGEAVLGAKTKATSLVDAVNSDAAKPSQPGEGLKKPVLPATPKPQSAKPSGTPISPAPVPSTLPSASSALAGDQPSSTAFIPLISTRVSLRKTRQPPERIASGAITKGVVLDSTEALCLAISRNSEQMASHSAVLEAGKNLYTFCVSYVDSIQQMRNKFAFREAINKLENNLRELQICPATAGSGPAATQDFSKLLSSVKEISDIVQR
T5 sequence (P51617 whole entry): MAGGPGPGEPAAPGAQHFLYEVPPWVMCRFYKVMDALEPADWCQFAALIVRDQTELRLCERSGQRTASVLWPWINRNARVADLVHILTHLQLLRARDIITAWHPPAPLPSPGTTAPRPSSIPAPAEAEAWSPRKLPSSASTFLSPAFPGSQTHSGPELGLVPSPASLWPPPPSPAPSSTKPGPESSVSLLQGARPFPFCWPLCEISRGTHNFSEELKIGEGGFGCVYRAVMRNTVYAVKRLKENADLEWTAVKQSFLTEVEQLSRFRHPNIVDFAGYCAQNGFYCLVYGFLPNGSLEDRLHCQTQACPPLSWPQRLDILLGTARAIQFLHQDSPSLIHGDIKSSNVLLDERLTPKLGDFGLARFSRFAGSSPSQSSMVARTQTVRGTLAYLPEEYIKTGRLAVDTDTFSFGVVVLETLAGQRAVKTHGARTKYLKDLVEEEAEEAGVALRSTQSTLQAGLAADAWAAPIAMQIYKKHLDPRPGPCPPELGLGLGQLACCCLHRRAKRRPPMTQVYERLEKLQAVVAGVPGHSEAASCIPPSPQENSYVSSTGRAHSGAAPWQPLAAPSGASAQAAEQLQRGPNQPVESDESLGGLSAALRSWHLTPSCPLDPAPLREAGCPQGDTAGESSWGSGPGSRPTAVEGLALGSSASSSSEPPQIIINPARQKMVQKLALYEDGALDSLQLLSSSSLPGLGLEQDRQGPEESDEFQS
T9 sequence (Q02750 whole entry): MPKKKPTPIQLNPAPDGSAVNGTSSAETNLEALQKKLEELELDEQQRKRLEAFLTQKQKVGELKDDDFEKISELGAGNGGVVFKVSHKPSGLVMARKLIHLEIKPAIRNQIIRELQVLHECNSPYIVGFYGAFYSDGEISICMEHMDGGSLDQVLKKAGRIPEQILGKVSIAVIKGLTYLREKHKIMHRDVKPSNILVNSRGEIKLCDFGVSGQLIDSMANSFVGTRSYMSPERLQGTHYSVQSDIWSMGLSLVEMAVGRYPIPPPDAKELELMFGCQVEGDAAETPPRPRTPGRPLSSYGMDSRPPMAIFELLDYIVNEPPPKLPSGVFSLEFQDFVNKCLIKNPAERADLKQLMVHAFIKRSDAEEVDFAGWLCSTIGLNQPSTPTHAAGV
T4 sequence (P36507 whole entry): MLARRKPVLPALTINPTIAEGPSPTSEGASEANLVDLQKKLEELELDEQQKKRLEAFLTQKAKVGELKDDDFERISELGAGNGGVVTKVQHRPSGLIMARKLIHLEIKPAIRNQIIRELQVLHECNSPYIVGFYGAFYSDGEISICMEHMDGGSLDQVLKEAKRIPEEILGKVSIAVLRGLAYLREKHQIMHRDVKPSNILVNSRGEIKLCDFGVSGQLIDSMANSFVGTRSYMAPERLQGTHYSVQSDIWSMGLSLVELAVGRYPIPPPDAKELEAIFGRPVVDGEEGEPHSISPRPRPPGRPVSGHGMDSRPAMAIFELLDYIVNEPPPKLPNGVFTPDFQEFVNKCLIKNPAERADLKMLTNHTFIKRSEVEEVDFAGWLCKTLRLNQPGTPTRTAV
T3 sequence (Q9Y6M4 whole entry): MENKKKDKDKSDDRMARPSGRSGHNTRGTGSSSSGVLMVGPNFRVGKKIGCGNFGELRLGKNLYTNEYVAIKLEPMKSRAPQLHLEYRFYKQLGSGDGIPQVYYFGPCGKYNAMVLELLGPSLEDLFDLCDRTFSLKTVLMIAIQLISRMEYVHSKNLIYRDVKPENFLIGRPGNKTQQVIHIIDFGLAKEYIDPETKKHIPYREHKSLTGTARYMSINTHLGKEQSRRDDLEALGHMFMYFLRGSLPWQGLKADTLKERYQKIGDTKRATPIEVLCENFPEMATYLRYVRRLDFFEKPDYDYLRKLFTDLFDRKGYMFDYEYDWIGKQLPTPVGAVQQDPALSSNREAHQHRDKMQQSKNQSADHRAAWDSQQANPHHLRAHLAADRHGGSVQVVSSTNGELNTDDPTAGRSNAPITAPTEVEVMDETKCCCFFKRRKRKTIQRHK

Row | IC50 (kinases (kinome) [1]) [µM] | IC50 (kinases (kinome) [2]) [µM] | IC50 (kinases (kinome) [3]) [µM] | IC50 (kinases (kinome) [4]) [µM] | IC50 (kinases (kinome) [5]) [µM] | IC50 (kinases (kinome) [6]) [µM] | IC50 (kinases (kinome) [7]) [µM] | IC50 (kinases (kinome) [8]) [µM] | IC50 (kinases (kinome) [9]) [µM] | IC50 (kinases (kinome) [10]) [µM] | IC50 (kinases (kinome) [11]) [µM] | IC50 (kinases (kinome) [12]) [µM] | IC50 (kinases (kinome) [13]) [µM] | Structure (SMILES)
1 | > 10 | > 10 | – | – | – | – | – | – | – | – | – | – | – | C[C@H]1COCCN1c1cc(-c2ccccc2S(C)(=O)=O)nc(-c2ccc(NC(=O)NC3CC3)cc2)n1 [Example 6, (S)-1-cyclopropyl-3-(4-(4-(3-methylmorpholino)-6-(2-(methylsulfonyl)phenyl)pyrimidin-2-yl)phenyl)urea]
2 | – | > 10 | > 10 | > 10 | > 10 | > 10 | > 10 | > 10 | > 10 | > 10 | – | – | – | C[C@H]1COCCN1c1nc(-c2ccc(NC(=O)NC3CC3)cc2)cc(-c2ccccc2S(C)(=O)=O)n1 [Example 4, (S)-1-cyclopropyl-3-(4-(2-(3-methylmorpholino)-6-(2-(methylsulfonyl)phenyl)pyrimidin-4-yl)phenyl)urea]
3 | > 10 | > 10 | – | > 10 | > 10 | > 10 | > 10 | > 10 | > 10 | > 10 | > 10 | > 10 | > 10 | C[C@H]1COCCN1c1nc(-c2ccc(NC(=O)NC3CC3)cc2)cc(-c2cc(F)ccc2S(C)(=O)=O)n1 [Example 40, (S)-1-cyclopropyl-3-(4-(6-(5-fluoro-2-(methylsulfonyl)phenyl)-2-(3-methylmorpholino)pyrimidin-4-yl)phenyl)urea]

The next lines start with the compound.

Row | Structure (SMILES) | IC50 (kinases (kinome) [1]) [µM] | IC50 (kinases (kinome) [2]) [µM] | IC50 (kinases (kinome) [3]) [µM] | IC50 (kinases (kinome) [4]) [µM] | IC50 (kinases (kinome) [5]) [µM] | IC50 (kinases (kinome) [6]) [µM] | IC50 (kinases (kinome) [7]) [µM] | IC50 (kinases (kinome) [8]) [µM] | IC50 (kinases (kinome) [9]) [µM] | IC50 (kinases (kinome) [10]) [µM] | IC50 (kinases (kinome) [11]) [µM] | IC50 (kinases (kinome) [12]) [µM] | IC50 (kinases (kinome) [13]) [µM]
4 | CCNC(=O)Nc1ccc(-c2cc(-c3ccccc3C#N)nc(N3CCOC[C@@H]3C)n2)cc1 [Example 8, (S)-1-(4-(6-(2-cyanophenyl)-2-(3-methylmorpholino)pyrimidin-4-yl)phenyl)-3-ethylurea] | > 10 | > 10 | > 10 | – | – | – | – | – | – | – | – | – | –
5 | C[C@H]1COCCN1c1nc(-c2ccc(NC(=O)NC3CC3)cc2)cc(-c2cccnc2S(C)(=O)=O)n1 [Example 46, (S)-1-cyclopropyl-3-(4-(2-(3-methylmorpholino)-6-(2-(methylsulfonyl)pyridin-3-yl)pyrimidin-4-yl)phenyl)urea] | > 10 | – | – | > 10 | > 10 | > 10 | – | – | > 10 | – | > 10 | > 10 | > 10
6 | C[C@H]1COCCN1c1nc(-c2ccc(NC(=O)N[C@H]3CCC[C@@H]3O)cc2)cc(-c2cc(F)ccc2S(C)(=O)=O)n1 [Example 76, 1-(4-(6-(5-fluoro-2-(methylsulfonyl)phenyl)-2-((S)-3-methylmorpholino)pyrimidin-4-yl)phenyl)-3-((1S,2S)-2-hydroxycyclopentyl)urea] | > 10 | – | – | > 10 | > 10 | > 10 | – | > 10 | > 10 | > 10 | – | – | –
7 | C[C@H]1COCCN1c1cc(-c2ccccn2)nc(-c2ccc(NC(=O)NCCO)cc2)n1 [Example 43, (S)-1-(2-hydroxyethyl)-3-(4-(4-(3-methylmorpholino)-6-(pyridin-2-yl)pyrimidin-2-yl)phenyl)urea] | – | > 10 | – | > 10 | > 10 | > 10 | – | – | > 10 | – | > 10 | > 10 | –

Reference: US9249129B2, “Morpholino substituted urea derivatives as mTOR inhibitors” (CELLZOME LIMITED, priority 2010, dated 2016)
